Source: ChEMBL document CHEMBL4346691, “GABA allosteric modulators: An overview of recent developments in non-benzodiazepine modulators” (Eur J Med Chem, 2019)

Key:
[1] = molecular target: T1, GABA-A receptor; alpha-1/beta-2/gamma-2 (Homo sapiens) (UniProt P14867+P47870+P18507); test: Positive allosteric modulation of recombinant human GABAA alpha1beta2gamma2s receptor expressed in Xenopus laevis oocytes assessed as GABA-stimulated current amplitude at 300 uM measured for 2 min by electrophysiological method relative to control; type: cell-based
[2] = Binding affinity to recombinant human GABA-A alpha2beta3gamma2 receptor expressed in L(tk) cells; type: cell-based
[3] = molecular target: T1, GABA-A receptor; alpha-1/beta-2/gamma-2 (Homo sapiens); test: Positive allosteric modulation of human GABA-A alpha1beta2gamma2S receptor expressed in Xenopus laevis oocytes assessed as increase in GABA-induced chloride channel current at 100 uM by two-electrode voltage clamp method relative to control; type: cell-based
[4] = molecular target: T2, GABA-A receptor; alpha-5/beta-3/gamma-2 (Homo sapiens) (UniProt P18507+P28472+P31644); test: Inverse agonist activity at recombinant human GABA-A alpha5beta3gamma2 receptor expressed in mouse L(tk-) cells by whole-cell patch-Clamp method; type: cell-based
[5] = molecular target: T3, GABA-A receptor; alpha-5/beta-3/gamma-2 (Homo sapiens, UniProt P18507+P28472+P31644); test: Inverse agonist activity at recombinant human GABA-A alpha5beta3gamma2 receptor expressed in mouse L(tk-) cells by radioligand binding assay; type: cell-based
T3 sequence (P18507 whole entry): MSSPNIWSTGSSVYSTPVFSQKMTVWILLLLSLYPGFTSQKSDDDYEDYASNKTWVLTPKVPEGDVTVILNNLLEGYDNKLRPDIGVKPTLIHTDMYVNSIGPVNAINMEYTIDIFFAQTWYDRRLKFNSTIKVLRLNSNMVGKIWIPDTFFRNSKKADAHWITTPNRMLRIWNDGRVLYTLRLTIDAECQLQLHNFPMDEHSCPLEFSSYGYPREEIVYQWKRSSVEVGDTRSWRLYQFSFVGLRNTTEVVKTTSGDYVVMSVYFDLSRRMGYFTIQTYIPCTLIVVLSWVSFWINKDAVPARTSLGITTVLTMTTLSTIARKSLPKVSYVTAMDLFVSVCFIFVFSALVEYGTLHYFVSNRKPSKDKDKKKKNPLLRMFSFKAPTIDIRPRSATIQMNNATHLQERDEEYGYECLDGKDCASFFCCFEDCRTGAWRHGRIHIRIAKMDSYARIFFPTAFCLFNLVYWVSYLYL
T3 sequence (P28472 whole entry): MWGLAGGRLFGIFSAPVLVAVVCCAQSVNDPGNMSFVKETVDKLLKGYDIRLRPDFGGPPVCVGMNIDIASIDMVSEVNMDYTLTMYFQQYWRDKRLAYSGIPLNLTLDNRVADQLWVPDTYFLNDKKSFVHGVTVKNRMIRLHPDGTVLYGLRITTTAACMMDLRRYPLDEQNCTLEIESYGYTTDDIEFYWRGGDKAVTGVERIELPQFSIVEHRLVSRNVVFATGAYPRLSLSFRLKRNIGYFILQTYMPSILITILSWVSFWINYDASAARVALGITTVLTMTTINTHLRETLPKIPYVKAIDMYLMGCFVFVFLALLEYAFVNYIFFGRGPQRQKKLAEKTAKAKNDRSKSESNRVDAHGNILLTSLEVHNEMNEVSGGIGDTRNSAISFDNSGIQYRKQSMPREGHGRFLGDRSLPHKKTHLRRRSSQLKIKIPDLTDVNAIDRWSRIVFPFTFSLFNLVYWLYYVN
T3 sequence (P31644 whole entry): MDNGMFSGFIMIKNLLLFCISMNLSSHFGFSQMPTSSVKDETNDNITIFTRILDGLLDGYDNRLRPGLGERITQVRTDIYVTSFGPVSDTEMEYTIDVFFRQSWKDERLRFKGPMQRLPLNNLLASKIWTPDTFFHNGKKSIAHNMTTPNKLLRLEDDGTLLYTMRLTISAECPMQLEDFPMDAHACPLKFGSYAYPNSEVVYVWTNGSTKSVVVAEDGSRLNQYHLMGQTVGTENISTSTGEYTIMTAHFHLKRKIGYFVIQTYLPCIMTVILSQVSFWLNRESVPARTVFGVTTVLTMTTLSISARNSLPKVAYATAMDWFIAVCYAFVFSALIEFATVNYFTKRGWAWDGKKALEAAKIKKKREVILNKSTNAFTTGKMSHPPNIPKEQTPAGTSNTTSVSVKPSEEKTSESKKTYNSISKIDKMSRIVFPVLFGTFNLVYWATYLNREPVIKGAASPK

Homo sapiens [6] = species on record: Homo sapiens; test: Agonist activity at human GABA-A alpha4beta2delta receptor expressed in Xenopus laevis oocytes assessed as maximal GABA response by electrophysiology method relative to GABA; type: cell-based
Homo sapiens [7] = species on record: Homo sapiens; test: Selectivity ratio, ratio of EC50 for human GABA-A alpha4beta1delta receptor expressed in Xenopus laevis oocytes to EC50 for human GABA-A alpha4beta3delta receptor expressed in Xenopus laevis oocytes; type: cell-based
[8] = Binding affinity to human GABA-A alpha4beta3delta receptor expressed in Xenopus laevis oocytes; type: cell-based
Homo sapiens [9] = species on record: Homo sapiens; test: Selectivity ratio, ratio of EC50 for human GABA-A alpha4beta1delta receptor expressed in Xenopus laevis oocytes to EC50 for human GABA-A alpha4beta2delta receptor expressed in Xenopus laevis oocytes; type: cell-based
[10] = Binding affinity to human GABA-A alpha4beta2delta receptor expressed in Xenopus laevis oocytes; type: cell-based
Homo sapiens [11] = species on record: Homo sapiens; test: Partial agonist activity at human GABA-A alpha4beta3delta receptor expressed in Xenopus laevis oocytes assessed as maximal GABA response by electrophysiology method relative to GABA; type: cell-based
[12] = molecular target: Gamma-aminobutyric acid receptor subunit alpha-4/beta-1/delta (Homo sapiens) (UniProt P48169+O14764+P18505); test: Partial agonist activity at human GABA-A alpha4beta1delta receptor expressed in Xenopus laevis oocytes assessed as maximal GABA response by electrophysiology method relative to GABA; type: cell-based
[13] = Displacement of [3H]-Flumazenil from GABAA/BZD receptor in rat cortical membranes; type: cell membranes
Xenopus laevis = test: Anaesthetic activity in Xenopus laevis tadpoles assessed as dose causing loss of righting reflex measured every 10 mins up to 120 mins; type: functional, organism-based
[14] = molecular target: T4, GABA-A receptor; alpha-1/beta-2/gamma-2 (Homo sapiens, UniProt P14867+P18507+P47870); test: Positive allosteric modulation of human GABA-A alpha1beta2gamma2S receptor expressed in Xenopus laevis oocytes assessed as increase in GABA-induced chloride channel current by two-electrode voltage clamp method relative to control; type: cell-based
T4 sequence (P14867 whole entry): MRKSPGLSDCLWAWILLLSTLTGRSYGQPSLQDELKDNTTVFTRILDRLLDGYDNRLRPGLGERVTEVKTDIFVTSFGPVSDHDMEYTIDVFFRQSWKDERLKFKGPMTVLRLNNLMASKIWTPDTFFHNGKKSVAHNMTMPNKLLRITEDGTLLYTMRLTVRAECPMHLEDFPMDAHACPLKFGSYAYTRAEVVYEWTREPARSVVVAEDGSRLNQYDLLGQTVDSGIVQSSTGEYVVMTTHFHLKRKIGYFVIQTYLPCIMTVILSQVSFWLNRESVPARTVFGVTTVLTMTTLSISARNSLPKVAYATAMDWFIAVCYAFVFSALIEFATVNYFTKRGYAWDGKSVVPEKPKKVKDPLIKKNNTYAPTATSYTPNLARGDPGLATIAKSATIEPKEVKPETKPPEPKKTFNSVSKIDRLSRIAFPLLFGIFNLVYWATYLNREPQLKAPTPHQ
T4 sequence (P47870 whole entry): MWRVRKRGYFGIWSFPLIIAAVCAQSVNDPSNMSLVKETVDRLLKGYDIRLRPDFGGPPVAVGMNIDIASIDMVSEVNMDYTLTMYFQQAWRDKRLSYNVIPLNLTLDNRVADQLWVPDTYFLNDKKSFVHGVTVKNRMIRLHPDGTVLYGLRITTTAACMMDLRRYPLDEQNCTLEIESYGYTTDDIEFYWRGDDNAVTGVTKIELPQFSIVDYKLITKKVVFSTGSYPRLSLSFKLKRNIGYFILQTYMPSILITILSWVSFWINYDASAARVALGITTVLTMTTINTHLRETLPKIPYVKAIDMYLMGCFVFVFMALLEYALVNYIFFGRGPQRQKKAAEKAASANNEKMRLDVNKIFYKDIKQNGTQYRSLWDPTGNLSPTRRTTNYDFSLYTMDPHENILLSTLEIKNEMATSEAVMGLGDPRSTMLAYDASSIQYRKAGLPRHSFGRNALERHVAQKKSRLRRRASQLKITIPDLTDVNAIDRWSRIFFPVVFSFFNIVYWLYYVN
T4 sequence (P18507 whole entry): T3 sequence (P18507 whole entry)

[15] = molecular target: T1, GABA-A receptor; alpha-1/beta-2/gamma-2 (Homo sapiens); test: Positive allosteric modulation of human GABA-A alpha1beta2gamma2S receptor expressed in Xenopus laevis oocytes assessed as increase in GABA-induced chloride channel current by two-electrode voltage clamp method; type: cell-based
[16] = molecular target: GABA-A receptor; anion channel; test: Displacement of [35S]TBPS from Sprague-Dawley rat brain cortical membrane GABAA receptor incubated for 90 mins by scintillation counting method
Homo sapiens [17] = species on record: Homo sapiens; test: Positive allosteric modulation of human GABA-A alpha4beta3delta receptor expressed in mouse L(tk-) cells assessed as GABA-induced membrane potential at 1 uM incubated for 2.5 min by FLIPR assay relative to control; type: cell-based
[18] = molecular target: T2, GABA-A receptor; alpha-5/beta-3/gamma-2 (Homo sapiens); test: Inverse agonist activity at recombinant human GABA-A alpha5beta3gamma2 receptor expressed in Xenopus laevis oocytes relative to control; type: cell-based
[19] = Displacement of [3H]-Flumazenil from GABAA/BZD receptor in Sprague-Dawley rat cerebral cortex incubated for 40 mins by liquid scintillation counting method
Homo sapiens [20] = species on record: Homo sapiens; test: Positive allosteric modulation of human GABA-A alpha4beta3delta receptor expressed in mouse L(tk-) cells assessed as GABA-induced membrane potential at 10 uM incubated for 2.5 min by FLIPR assay relative to control; type: cell-based
[21] = molecular target: GABA-A receptor; alpha-1/beta-3/gamma-2 (Homo sapiens) (UniProt P14867+P18507+P28472); test: Positive allosteric modulation of human GABA-Aalpha1beta3gamma2 receptor expressed in mouse L(tk-) cells assessed as GABA-induced membrane potential at 10 uM incubated for 2.5 min by FLIPR assay relative to control; type: cell-based
Homo sapiens [22] = species on record: Homo sapiens; test: Positive allosteric modulation of human GABAA alpha4beta3gamma2 receptor expressed in mouse L(tk-) cells assessed as GABA-induced membrane potential at 10 uM incubated for 2.5 min by FLIPR assay relative to control; type: cell-based
[23] = Displacement of [3H]-Flumazenil from GABAA/BZD receptor in rat cortical membranes incubated for 40 mins by radioligand binding assay; type: cell membranes
[24] = Oral bioavailability in rat at 3 mg/kg; type: ADME, organism-based; details: in vivo
[25] = molecular target: T1, GABA-A receptor; alpha-1/beta-2/gamma-2 (Homo sapiens); test: Positive allosteric modulation of human recombinant GABA-A alpha1beta2gamma2L receptor expressed in Xenopus laevis oocytes assessed as maximal current response by two-electrode voltage clamp method relative to control; type: cell-based
[26] = molecular target: T4, GABA-A receptor; alpha-1/beta-2/gamma-2; test: Positive allosteric modulation of human recombinant GABA-A alpha1beta2gamma2L receptor expressed in Xenopus laevis oocytes by two-electrode voltage clamp method; type: cell-based
[27] = Inhibition of BZD receptor (unknown origin); parameters: species or system Homo sapiens

C=C(C)[C@H]1CC[C@H](C)C[C@@H]1O
Activity [1]: 280%

c1ccc(-c2nnc3c4ccccc4c(OCc4ccccn4)nn23)cc1
Ki [2]: 1.7 nM

COc1c2ccoc2c(OCC=C(C)C)c2oc(=O)ccc12
Activity [3]: > 20%

Cc1cc(-c2nncc3c(C(C)(C)C)c(OCc4ncnn4C)nn23)no1
Efficacy [4]: -55% | Ki [5]: 3 nM

COc1ccccc1-c1oc2ccc(C)cc2c(=O)c1O
Imax (Homo sapiens [6]): 105% | Ratio EC50 (Homo sapiens [7]): 10 | EC50 [8]: 2500 nM | Ratio EC50 (Homo sapiens [9]): 10 | EC50 [10]: 1400 nM | Imax (Homo sapiens [11]): 105% | Imax [12]: 61%

CCOC(=O)c1cnc2ccc(C(F)(F)F)cc2c1O
Ki [13]: 122 nM

CC1CCCC(C)C1O (stereo not drawn)
EC50 (Xenopus laevis): 13.1 µM

CC(C)[C@H]1CC[C@@H](C)C[C@@H]1O
Activity [1]: 226%

COc1ccc2ccc(=O)oc2c1CC=C(C)C [OSTHOLE]
EC50 [14]: 14 µM | Activity [15]: 116% | Activity [3]: > 20%

CC1=CCC(C(C)(C)O)CC1 (stereo not drawn)
Activity [1]: 91.2%

OC1CCCCC1
Activity [1]: 30.1%

CCNC1=Nc2ccc(Cl)cc2C(C)(c2ccccc2)O1 (stereo not drawn) [ETIFOXINE]
IC50 [16]: 6.7 µM

O=C(Nc1c(-c2cccs2)nc2ccccn12)c1ccc(Cl)cc1
Activity (Homo sapiens [17]): 126%

Cc1cc(-c2nnc3c4ccccc4c(OCc4cn(C)nn4)nn23)no1
Efficacy [18]: -29%

CC(C)C1CCCC(C(C)C)C1O (stereo not drawn)
EC50 (Xenopus laevis): 14 µM

O=C1C[C@@H](c2ccc(O)cc2)Oc2cc(O)c(-c3c(O)cc(O)c4c(=O)cc(-c5ccc(O)cc5)oc34)c(O)c21
Ki [19]: 45 nM

O=C(Nc1c(-c2cccs2)nc2c(Br)cc(Br)cn12)c1ccc(Cl)cc1
Activity (Homo sapiens [20]): 975% | Activity [21]: 407% | Activity (Homo sapiens [22]): 306%

CCCCCc1nsc2[nH]c3ccc(C)cc3c(=O)c12
Ki [23]: 13 nM

CCCC(=O)Nc1nsc2[nH]c3ccc(C)cc3c(=O)c12
Ki [23]: 2.8 nM

O=C1C[C@@H](c2ccc(O)cc2)Oc2c1c(O)cc(O)c2-c1c(O)cc(O)c2c(=O)cc(-c3ccc(O)cc3)oc12
Ki [19]: 280 nM

c1ccc(COc2nn3c(-c4ccccc4)nnc3c3ccccc23)cc1
Ki [2]: 16 nM

CC1(C)O[C@H]1COc1c2ccoc2cc2oc(=O)ccc12 [OXYPEUCEDANIN]
EC50 [14]: 25 µM | Activity [15]: 547% | Activity [3]: > 20%

CC(C)=CCOc1c2ccoc2cc2oc(=O)ccc12
Activity [3]: > 20%

c1ccc(-c2nnc3c4c(c(OCc5ccccn5)nn23)C2CCC4CC2)cc1
Ki [2]: 26 nM | bioavailability [24]: 33%

CCCc1cc2c(=O)c(-c3ccc4c(c3)OCO4)c(CC)oc2cc1OC(=O)CC
Emax [25]: 1080% | EC50 [26]: 9.3 µM

CC(C)=CCOc1c2occc2cc2ccc(=O)oc12
Activity [3]: > 20%

O=c1c2c[nH]c3c(c-2nn1-c1ccc(Cl)cc1)CCCC3
IC50 [27]: 1 nM

CC1(C)O[C@@H]1COc1c2occc2cc2ccc(=O)oc12
Activity [3]: > 20%
